From US20090098548A1, “MODULATORS OF ENZYMATIC NUCLEIC ACID ELEMENTS MOBILIZATION” (priority 2004, published 2009)
Entries after “also recorded” stand apart in the source; their conditions may differ. Like-named read-outs stand apart in the source and are kept apart here.

How the values were obtained:
[1] = target: T1, Tn5 transposase (Escherichia coli, UniProt Q46731, E54K/L372P/M56A); type: binding
T1 construct: made in house
Protocol: For FP analysis, 60 μL reactions were analyzed using the FP protocol on a Wallac Victor V plate reader and a 7% native polyacrylamide gel was used in gel shift assays. For compound screening and subsequent analysis, 1 μL of either DMSO or test compound (final concentration 80 KIM) was added to the synapsis reactions. Compound screening was carried out using a Beckman Coulter Biomek FX in a 384 well format. Compounds identified as hits were rescreened using gel shift assays under synapsis conditions with a 120 μM compound concentration. IC50 values were obtained by fitting inhibitor titration data (0, 0.01, 0.05, 0.1, 0.5, 2.5, 10, 20, 35, 50, 100, 200, 400, 800 μM) to an exponential decay.

[2] = system: HIV-1
Protocol: HIV-1 transduction assay and inhibitory screen: 10,000 Ghost-R5 cells per well were plated in a 384 well plate in 49 μL media. 18 hours after plating, 1 μL of inhibitory compound, dissolved in DMSO, was added and gently mixed into solution. Following a 1 hour 37° C. incubation, HIV-1 virions were added in a final infectious volume of 100 μL. 44-48 hours after infection, 87 μL of media was removed from each well, and 13 μL/well of Bright-Glo luciferase detection reagent (Promega) was added. After a 2 minute incubation, the plates were read on a multiwell plate luminometer.
In parallel, cells infected with virus and compound were assayed for luciferase expression by the addition of […] of Bright-Glo reagent, as described above. In this way, effect of the inhibitory compounds on luciferase expression brought about by successful transduction was measured in the constant presence of the compounds.

[3] = system: HIV reverse transcription; assay: Quantitative real-time PCR of reverse transcripts in acutely infected cells; type: cell-based, HIV-1; settings: 75 μM inhibitor, QPCR
Protocol: Quantitative real-time PCR of reverse transcripts, detection of transduction in newly infected cells, and effect of compounds on established provirus expression in stably infected cells: 10,000 Ghost-R5 cells were plated in 96 well dishes, treated with compound in a total volume of 75 μL, and incubated at 37° C. for 1 hour. Virus was then added in an additional volume of 25 μL. The final infectious volume was 100 μL, the final DMSO concentration was 1%, and the final compound concentration was as indicated. DNA was harvested using the DNeasy kit (Qiagen) 24 hours after infection in the constant presence of inhibitory compounds. Late DNA products of HIV reverse transcription were quantitated using the primers MH531 and MH532, and the probe LTR-P, as described in Burke, T. R. et al., J Med Chem 38:4171-8, 1995, herein incorporated by reference in its entirety.

[4] = system: luciferase expression from proviral DNA; assay: Established provirus luciferase expression in stably infected Ghost-R5 cells; type: cell-based, HIV-1; settings: 75 μM inhibitor, chronically infected cells
Protocol: To assess the potential effects of the inhibitory compounds on post-integration events such as transcription, translation, and luciferase enzyme stability and activity, Ghost-R5 cells stably infected several weeks earlier with the same virus preparation were incubated with inhibitory compound in 96 well dishes and luciferase activity was monitored 48 hours later by the addition of 100 μL of Bright-Glo reagent to each well, as described above.

[5] = target: T2, HIV-1 integrase (Human immunodeficiency virus type 1 group M subtype B, UniProt P04585); assay: HIV-1 integrase assay (3' strand processing, PAGE); type: biochemical; parameters: made in house
Protocol: (§1) HIV-1 integrase assay: HIV-1 integrase activity was measured as described in Daniel, R. et al., AIDS Res Hum Retroviruses 20:135-44, 2004 (incorporated by reference in its entirety), except that 1.0 μL of either DMSO or inhibitor were added to the reactions. Briefly, HIV-1 integrase (1 μM, final concentration) was pre-incubated with various concentrations of inhibitor at 30° C. for 30 min. A 21-base pair ^32P labeled substrate (1×10^6 dpm), representing the U5 end of the viral genome, and MnCl2 (10 mM, final concentration) were subsequently added to the reaction. The reaction proceeded for 15 min. at 37° C. The reactions were subsequently quenched using EDTA (10 mM, final concentration), and the products separated on a 20% denaturing polyacrylamide gel.

[6] = target: T3, Tn5 transposase (EK54, MA56 and LP372 hyperactive mutant version) (Escherichia coli, UniProt Q46731, E54K/L372P/M56A); assay: Inhibition of Tn5 transposase-DNA complex assembly (synapsis), gel shift assay; type: binding, prokaryotic (Tn5 transposon, IS4 family); settings: 800 nM transposase, 160 nM dsDNA, 60 bp DNA, fit to exponential decay, ± SD from fit, at least two, typically three experiments
T3 construct: made in house
T3 sequence (Q46731 1-476 E54K/M56A/L372P): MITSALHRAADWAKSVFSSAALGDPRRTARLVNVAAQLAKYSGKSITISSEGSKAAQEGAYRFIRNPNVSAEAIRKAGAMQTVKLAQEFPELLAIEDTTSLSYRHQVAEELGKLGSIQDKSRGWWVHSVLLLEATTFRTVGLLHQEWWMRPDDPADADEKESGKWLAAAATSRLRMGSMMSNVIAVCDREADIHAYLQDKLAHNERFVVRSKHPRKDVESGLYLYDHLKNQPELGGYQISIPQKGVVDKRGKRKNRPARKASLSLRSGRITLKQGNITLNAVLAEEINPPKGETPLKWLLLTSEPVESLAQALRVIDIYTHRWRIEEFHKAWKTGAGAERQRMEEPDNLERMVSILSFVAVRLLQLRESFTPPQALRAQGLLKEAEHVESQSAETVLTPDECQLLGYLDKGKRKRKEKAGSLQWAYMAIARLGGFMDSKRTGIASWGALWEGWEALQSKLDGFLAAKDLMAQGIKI
Protocol: The data in this graph were obtained from multiple experiments. Each data point represents at least two, typically three, independent experiments. Error is represented as the standard deviation (SD) from the fit of the data to the equation used to calculate the IC50. Tnp=transposase.
IC50 values were determined from gel shift assays, similar to FIG. 5. […] Each value represents at least two, typically three, independent experiments. Error is represented as the standard deviation (SD) from the fit of the data to the equation used to calculate the IC50.
DNA substrates: The oligonucleotides were purchased HPLC purified from IDT. dsDNA was formed by adding two μmoles of each oligonucleotide to 10 mM Tris-HCl pH 7.9 and 10 mM NaCl. The oligonucleotides were either heated to 96° C. for one minute followed by a decrease in temperature at 0.1° C./sec to 4° C. or heated to 90° C. in a 2 L water bath and cooled to 8° C. overnight. The transferred strand was 5′ end labeled with either rhodamine green for FP or fluorescein for gel shift assays.
The 19 bp DNA sequences used for FP assays were 5° C. […] The 40 bp DNA sequences used for the gel shift assays during assay development were 5° C.
(§2) Transposase and integrase purification: The EK54, MA56 and LP372 hyperactive mutant version of transposase was used for all assays and is referred to as transposase throughout this work. Transposase and integrase proteins were purified as described in Ason, B., and W. S. Reznikoff, J Mol Biol 335:1213-25, 2004 and Taganov, K. D. et al., Journal of Virology 78:5848-55, 2004, both are herein incorporated by reference in their entirety.
FP and gel-shift assays: Reactions were performed as described in Ason, B., and W. S. Reznikoff, J Mol Biol 335:1213-25, 2004, except 800 nM transposase and 160 nM dsDNA were used for complex formation. For FP analysis, 60 μL reactions were analyzed using the FP protocol on a Wallac Victor V plate reader and a 7% native polyacrylamide gel was used in gel shift assays. For compound screening and subsequent analysis, 1 μL of either DMSO or test compound (final concentration […]) was added to the synapsis reactions. Compound screening was carried out using a Beckman Coulter Biomek FX in a 384 well format. Compounds identified as hits were rescreened using gel shift assays under synapsis conditions with a 120 μM compound concentration. IC50 values were obtained by fitting inhibitor titration data (0, 0.01, 0.05, 0.1, 0.5, 2.5, 10, 20, 35, 50, 100, 200, 400, 800 μM) to an exponential decay.

[7] = target: T2, HIV-1 integrase; assay: HIV-1 integrase in vitro activity, 3' strand processing (denaturing PAGE); type: biochemical; parameters: HIV-1 integrase (1 μM, final concentration); made in house
Protocol: The degree of 3′ strand processing is measured by the percentage of the signal obtained for the 3′ strand processing product relative to the total signal per lane. IN=integrase.
These values are calculated from data measuring the percentage of the 3′ strand processing product formed, as described in FIG. 6. Assay products are observed using PAGE, as described in the methods section. Each value represents at least two, typically three, independent experiments. Error is represented as the standard deviation (SD) from the fit of the data to the equation used to calculate the IC50.
Increasing concentrations (0.01, 0.1, 1, 10, 20, 30, 50, 75, 100 μM) of each compound were used to determine their ability to block HIV-1 integration in vivo and determine their inherent cytotoxicity, as described in the methods section of example 2 below. Reactions were performed in triplicate. Each compound is further analyzed for inhibition of integrase activity in vitro, as described in FIG. 6. Each value represents three independent experiments. Error is represented as the standard deviation (SD) from the fit of the data to the equation used to calculate the IC50. IN=integrase.
as §2, §1

[8] = 1 μM integrase, pre-incubated 30° C. 30 min, 21-base pair 32P substrate, 10 mM MnCl2, 15 min 37° C., ± SD from fit, at least two, typically three experiments, read-out: HIV-1 integrase (3' strand processing) IC50
[9] = read-out: HIV-1 IN (integrase) in vitro IC50

| Structure (SMILES) | IC50 [6] [µM] | further results |
| --- | --- | --- |
| COc1ccc(N2C(=O)C(O)=C(C(=O)/C=C/c3ccccc3)C2c2cccc([N+](=O)[O-])c2)cc1 (stereo not drawn) [10-B] | – | inhibition of transposase assembly (in words) [1]: inhibit; inhibition of HIV-1 infection in cells (in words) [2]: inhibit; effect on reverse transcription (viral DNA synthesis) [3]: either uninhibited, or only inhibited to a small extent; also recorded: no significant inhibitory effect; effect on luciferase expression from proviral DNA [4]: no significant inhibitory effect; inhibition of integrase in vitro (in words) [5]: inhibit |
| O=c1oc2ccccc2c(O)c1C(c1cccc(F)c1)c1c(O)c2ccccc2oc1=O [Compound 1] | 8.1 ± 1.2 | – |
| COc1ccc(C(c2c(O)c3ccccc3oc2=O)c2c(O)c3ccccc3oc2=O)cc1CSc1ccccn1 [Compound 2] | 4.8 ± 0.4 | – |
| Cc1ccc(C(c2c(O)c3ccccc3oc2=O)c2c(O)c3ccccc3oc2=O)cc1 [Compound 3] | 3.5 ± 0.4 | – |
| COc1ccc(C(c2c(O)c3ccccc3oc2=O)c2c(O)c3ccccc3oc2=O)cc1Cn1nc(C)c([N+](=O)[O-])c1C [Compound 4] | 4.7 ± 0.4 | IC50 [7, 8]: 9 ± 2 µM |
| COc1cc(C=C2SC(=S)NC2=O)cc(Cl)c1OC(C)C [Compound 5] | 10 ± 1 | – |
| O=S(=O)(c1cc(Cl)cc(Cl)c1O)c1cc(Cl)cc(Cl)c1O [Compound 6] | 4 ± 0.3 | IC50 [7, 8]: 32 ± 9 µM |
| CCc1nnc(NS(=O)(=O)c2ccc(NC=CC(=O)c3ccc4ccccc4c3)cc2)s1 [Compound 7] | 4 ± 0.6 | – |
| Cc1ccc(C(=O)Nc2ccccc2C(=O)Nc2ccccc2C(=O)O)cc1 [Compound 8] | 8.7 ± 1 | – |
| O=C1C(=C2c3ccccc3C(=O)C2C2c3ccccc3Oc3ccccc32)C(=O)c2ccccc21 (stereo not drawn) [Compound 9] | 3.4 ± 0.7 | – |
| O=C(C1=C(O)C(=O)N(c2ccccc2)C1c1cccc([N+](=O)[O-])c1)c1ccccc1 (stereo not drawn) [Compound 10-A] | – | IC50 [7, 9]: 165 ± 35 µM |
| COc1ccc(N2C(=O)C(O)=C(C(=O)/C=C/c3ccccc3)C2c2cccc([N+](=O)[O-])c2)cc1 (stereo not drawn) [Compound 10-B] | – | IC50 [7, 9]: 22 ± 12 µM |
| COc1ccc(N2C(=O)C(O)=C(C(=O)/C=C/c3ccccc3)C2c2ccc([N+](=O)[O-])cc2)cc1 (stereo not drawn) [Compound 10-C] | – | IC50 [7, 9]: 46 ± 12 µM |
| O=C(/C=C/c1ccccc1)C1=C(O)C(=O)N(c2cccc(C(=O)O)c2)C1c1ccc([N+](=O)[O-])cc1 (stereo not drawn) [Compound 10-D] | – | IC50 [7, 9]: 87 ± 9 µM |
| COc1ccc(N2C(=O)C(O)=C(C(=O)/C=C/c3ccccc3)C2c2ccc(Cl)cc2)cc1 (stereo not drawn) [Compound 10-E] | – | IC50 [7, 9]: 12 ± 3 µM |
| O=C(/C=C/c1ccccc1)C1=C(O)C(=O)N(c2cccc(C(F)(F)F)c2)C1c1ccc([N+](=O)[O-])cc1 (stereo not drawn) [Compound 10-F] | – | IC50 [7, 9]: 11 ± 4 µM |
| Cc1ccccc1N1C(=O)C(O)=C(C(=O)/C=C/c2ccccc2)C1c1ccc(Br)cc1 (stereo not drawn) [Compound 10-G] | – | IC50 [7, 9]: 11 ± 2 µM |
| O=C(/C=C/c1ccccc1)C1=C(O)C(=O)N(c2ccccc2)C1c1cccc([N+](=O)[O-])c1 (stereo not drawn) [Compound 10] | 35 ± 3 | – |
| COc1cccc(OCCOc2cccc(C=C3SC(=S)NC3=O)c2)c1 [Compound 11] | 5.3 ± 0.9 | – |
| COc1cccc(C(c2c(O)c3ccccc3oc2=O)c2c(O)c3ccccc3oc2=O)c1 [Compound 12] | 9.5 ± 0.9 | – |
| COc1cc(C=C2SC(=S)NC2=O)ccc1OS(=O)(=O)c1ccccc1[N+](=O)[O-] [Compound 14] | 8.6 ± 0.8 | IC50 [7, 8]: 17 ± 3 µM |
| O=C(Nc1ccccc1C(=O)O)c1ccc2c(c1)C(=O)N(c1ccccc1-c1ccccc1)C2=O [Compound 15] | 20 ± 2 | – |
| O=C(Nc1ccccc1C(=O)O)c1cccc(NC(=O)C(c2ccccc2)c2ccccc2)c1 [Compound 16] | 46 ± 5 | – |
| O=C(Nc1ccccc1C(=O)O)c1ccc(NC(=O)C(c2ccccc2)c2ccccc2)cc1 [Compound 17] | 9.3 ± 0.9 | – |
| O=C(O)C(Cc1ccccc1)N1C(=O)C(=Cc2ccc(Br)cc2)SC1=S (stereo not drawn) [Compound 18] | 10 ± 1 | – |
| O=C(O)C(Cc1ccccc1)N1C(=O)C(=CC=Cc2ccccc2)SC1=S (stereo not drawn) [Compound 19] | 16 ± 2 | – |
| CCCOc1ccc(C(=O)Nc2ccc(Br)cc2C(=O)O)cc1 [Compound 20] | 20 ± 3 | – |
| O=C(NC(=S)Nc1cc([N+](=O)[O-])cc(Cl)c1O)c1ccccc1 [aromatic thiourea] | – | IC50 ([1]; read-out: IC50, inhibition of Tn5 transposase-DNA complex assembly, gel shift assays, inhibitor titration): 24 µM |
| O=C(C1=C(O)C(=O)N(c2ccccc2)C1c1cccc([N+](=O)[O-])c1)c1ccccc1 (stereo not drawn) [compound 10-A] | – | inhibition of integrase in vitro (in words) [5]: impedes its efficacy as an integrase inhibitor |
